Source: ChEMBL document CHEMBL2311407, “Design and synthesis of diazatricyclodecane agonists of the G-protein-coupled receptor 119” (J Med Chem, 2013)

Assay: Apparent intrinsic clearance in human liver microsomes
Assay type: ADME, Microsome
Conditions: read-out: CLH(app)

Structure (SMILES) | CLint scaled
CC[C@@H](C)OC(=O)N1C2CC3CC1CC(C2)N3c1ncnc(Oc2cccnc2C)c1C | > 30 mL/min/kg
CC[C@H](C)OC(=O)N1C2CC3CC1CC(C2)N3c1ncnc(Oc2cccnc2C)c1C | > 30 mL/min/kg
Cc1ncccc1Oc1ncnc(N2C3CC4CC2CC(C3)N4C(=O)OC2(C)CCC2)c1C | > 30 mL/min/kg
